Results published in patent US8512943B2, “Accessing the toxic potential of nanomaterials” (The Regents of the University of California, priority 2005, dated 2013).

Legend:
RAW 264.7 cells [1] = test: DiOC6 fluorescence, mitochondrial membrane potential (Δψm); format: cell-based
Description: (§1) Cells were stained with the fluorescent dyes diluted in DMEM. The following dye combinations were added for 15-30 min at 37° C. in the dark: (i) 47.5 μg/ml propidium iodide (PI) in 200 μl DMEM (assessment of cell death); (ii) 20 nM DiOC6 (assessment of Δψm); (iii) 2 μM MitoSOX™ red (superoxide generation) or 2 μM hydroethidine (HE, superoxide production); (iv) 2.5 μM 2,7 dichlorofluorescein (DCF, mostly assesses H2O2 production); (v) 5 μM Fluo-3 (assess cytoplasmic free calcium); (vi) 4 μM Rhod-2 (mitochondrial free calcium); (vii) 40 μM monobromobimane (MBB, assess intracellular thiol levels). Flow cytometry was performed using a FACScan (Becton Dickinson, Mountain View, Calif.) equipped with a single 488 nm argon laser. DiOC6 and Fluo-3 fluorescence were analyzed in the FL-1 channel, while PI, Rhod-2 and MitoSOX red fluorescence were analyzed in FL-2. HE fluorescence was analyzed using FL-3 channels. Monobromobimane fluorescence was excited by the UV laser tuned to 325 nm, and emission was measured at 510 nm (FL-4 channel) in the LSR flow cytometer. Forward and side scatter were used to gate out cellular fragments.
Toxic oxidative stress can perturb mitochondrial function in a number of ways, including disruption of electron flow in the inner membrane, dissipation of the mitochondrial membrane potential (Δψm), mitochondrial Ca^2+ uptake, and large-scale opening of the PTP. […]

RAW 264.7 cells [2] = system: RAW 264.7 cells
Description: Electron microscopy was performed as previously described (Yang A H, et al., In Vitro Cell Dev Biol 23:34-46, 1987). Thin sections were cut with a Reichert-Jung ultracut and ultramicrotome (Leica, Stuttgart, Germany). Copper grids were stained with lead citrate and uranyl acetate and photographed in a Hitachi electron microscope (Hitachi Instrument Inc., Tokyo, Japan).

TNF-α = TNF-α production by ELISA; format: cell-based, mouse
Description: Triplicate aliquots of RAW 264.7 cells were exposed to NP for 6 hr. The culture media were collected, centrifuged to remove all debris and the resultant supernatant assayed by ELISA for TNF-α and Western blotting for Jun kinase.

RAW 264.7 cells [3] = test: DCF fluorescence (H2O2 production), flow cytometry; format: cell-based, mouse
Description: (§2) RAW 264.7 cells were cultured in a 5% CO2 in Dulbecco's Modified Eagle Medium (DMEM) containing 10% FCS, 5000 U/ml penicillin, 500 μg/ml streptomycin, and 2 mM L-glutamine (complete medium). For exposure to NP, aliquots of 3×10^5 cells were cultured in 24-well plates in 0.5 ml of medium at 37° C. for the indicated time periods. All the NP solutions were prepared fresh from stock solutions (10 mg/ml) and the solutions were sonicated for 10 sec before addition to cell cultures.
Cells were stained with the fluorescent dyes diluted in DMEM. […] DiOC6 and Fluo-3 fluorescence were analyzed in the FL-1 channel, while PI, Rhod-2 and MitoSOX red fluorescence were analyzed in FL-2. HE fluorescence was analyzed using FL-3 channels. Monobromobimane fluorescence was excited by the UV laser tuned to 325 nm, and emission was measured at 510 nm (FL-4 channel) in the LSR flow cytometer. […]
The fold-increase in mean fluorescence intensity (MFI) of DCF was expressed as the ratio of particle-treated vs. control cells (FIG. 8A).

RAW 264.7 cells [4] = test: MitoSOX Red fluorescence (mitochondrial superoxide production), flow cytometry; format: cell-based, mouse
Description: as §2

HO-1 = HO-1 expression by immunoblotting; format: cell-based, mouse
Description: GAPDH immunoblotting was used to ascertain equal protein loading (lower panels).
For Western blotting, 100 μg of total protein was separated by 10% SDS-PAGE and transferred to a PVDF membrane. After blocking, the membranes were incubated with primary antibodies against HO-1, phospho-JNK or JNK. The membranes were overlayed with secondary antibody before the addition of the HRP-conjugated avidin-biotin complex. The proteins were detected using ECL reagent according to the manufacturer's instructions. Protein abundance was quantified by densitometric scanning using a laser Personal Densitometer SI and Image Quant software (Amersham Biosciences).

RAW 264.7 cells [5] = test: Propidium iodide (PI) uptake, cellular toxicity; format: cell-based
Description: as §1
Large-scale PTP opening leads to mitochondrial depolarization, O2.^− production and the release of pro-apoptotic factors. Cellular toxicity was assessed by PI staining (FIG. 18C).

titanium dioxide [TiO2]
DiOC6 fluorescence (Δψm) (RAW 264.7 cells [1]): failed to exert an influence
cellular uptake, subcellular localization and mitochondrial damage (RAW 264.7 cells [2]): taken up into loose-fitting phagosomes without noticeable mitochondrial damage

Polymyxin B [PMB]
effect on LPS-induced TNF-α response (TNF-α; 6 hr): significant suppression
effect on UFP TNF-α response (TNF-α; 6 hr): small effect

Carbon Black
cellular uptake, subcellular localization and mitochondrial damage (RAW 264.7 cells [2]): taken up in phagosomes without mitochondrial damage

CC(=O)N[C@@H](CS)C(=O)O [NAC, N-acetylcysteine]
effect on ROS production by NH2-PS particles (RAW 264.7 cells [3]): effectively disrupted
effect on UFP-induced H2O2 production (RAW 264.7 cells [3]; pretreatment, 4 and 16 hrs): significantly suppressed
effect on NH2-PS ROS response (RAW 264.7 cells [4]; 8 hrs): failed to suppress
effect on NH2-PS ROS response (RAW 264.7 cells [4]; 16 hrs): did interfere
effect on UFP-induced O2.− generation (RAW 264.7 cells [4]; all time points): could interfere
effect on induction of HO-1 expression by NP (HO-1): suppressed
effect on UFP-induced TNF-α production (TNF-α; pre-treatment 2 hr, then UFP 6 hr): capable of interfering
effect on cytotoxicity of UFP and NH2-PS (RAW 264.7 cells [5]): could interfere

C[S+]([O-])CCCCN=C=S (stereo not drawn) [SFN, Sulforaphane]
HO-1 expression after prior treatment (HO-1; without NP): resulted in HO-1 expression
effect of prior treatment on TNF-α production (TNF-α; pre-treatment 4 hr, then UFP 6 hr): interference
